2 compounds from ChEMBL document CHEMBL5649167, “The SUV4-20 inhibitor A-196 verifies a role for epigenetics in genomic integrity” (Nat Chem Biol, 2017) can be followed below.

Test [1] deals with Histone-lysine N-methyltransferase KMT5B (Homo sapiens) (UniProt Q4FZB7). Briefly: Inhibition of recombinant human 6His-(Tev)-G-SUV420H1 (69 to 335 residues) using Biotin-tagged H4K20me1 and [3H-SAM] as substrate incubated for 2 hrs by scintillation proximity assay. Background: SPA uses beads or plates that emit light when radiolabelled molecules are held near them.
In test [2] the test system is U2OS. Briefly: Inhibition of H4K20me1 in human U2OS cells assessed as change in methylation level at 10 uM incubated for 48 hrs by Western blotting analysis. It is filed as functional, cell-based. (Immunoblotting shows a protein as a band on a membrane.)
Test [3] concerns U2OS. The test can be described thus: Inhibition of H4K20me2 in human U2OS cells assessed as change in methylation level at 10 uM incubated for 48 hrs by Western blotting analysis. It is filed as functional, cell-based.
The test system of test [4] is MEF. Briefly: Antiproliferative activity against mouse MEF cells assessed as change in H4K20me3 at 10 uM incubated for 3 days by immunofluorescence analysis. It is filed as functional, cell-based. The note with it: time 3.0 day.
In test [5] the test system is MEF. Briefly: Antiproliferative activity against mouse MEF cells assessed as change in H4K20me1 at 10 uM incubated for 3 days by immunofluorescence analysis. Conditions: time 3.0 day. Format: functional, cell-based.
For test [6], the species on record is Homo sapiens. The test can be described thus: Inhibition of human CB1 at 10 uM relative to control.
For test [7], the target named is Sodium-dependent noradrenaline transporter (Homo sapiens) (UniProt P23975). The test can be described thus: Inhibition of human Norepinephrine transporter at 10 uM relative to control.
In test [8] the target is 5-hydroxytryptamine receptor 7 (Homo sapiens) (UniProt P34969). The test can be described thus: Inhibition of human 5-HT7 in stable HEK cells at 10 uM relative to control. Format: cell-based.
The species entered for test [9] is Homo sapiens. Briefly: Inhibition of human GABAA at 10 uM relative to control.
Test [10] addresses Histone-lysine N-methyltransferase EHMT2 (Homo sapiens) (UniProt Q96KQ7). Briefly: Inhibition of G9a (unknown origin) using Biotin-tagged H4K20me1 and [3H-SAM] as substrate at 1 to 10 uM incubated for 2 hrs by scintillation proximity assay. The note with it: dose 1-10 µM.
In test [11] the target is PRMT5/MEP50 complex (Homo sapiens) (UniProt O14744+Q9BQA1). The test can be described thus: Inhibition of PRMT5/MEP50 complex (unknown origin) using Biotin-tagged H4K20me1 and [3H-SAM] as substrate at 1 to 10 uM incubated for 2 hrs by scintillation proximity assay. The note with it: dose 1-10 µM. It is filed as protein-complex assay.
Test [12] concerns the target Histone-lysine N-methyltransferase SETDB1 (Homo sapiens) (UniProt Q15047). The test can be described thus: Inhibition of SETDB1 (unknown origin) using Biotin-tagged H4K20me1 and [3H-SAM] as substrate at 1 to 10 uM incubated for 2 hrs by scintillation proximity assay. Conditions: dose 1-10 µM.
Test [13] concerns the target Histone-lysine N-methyltransferase SUV39H1 (Homo sapiens) (UniProt O43463). Briefly: Inhibition of SUV39H1 (unknown origin) using Biotin-tagged H4K20me1 and [3H-SAM] as substrate at 1 to 10 uM incubated for 2 hrs by scintillation proximity assay. The note with it: dose 1-10 µM.
Test [14] has as its target Histone-lysine N-methyltransferase 2A (Homo sapiens) (UniProt Q03164). The test can be described thus: Inhibition of MLL1 (unknown origin) using Biotin-tagged H4K20me1 and [3H-SAM] as substrate at 1 to 10 uM incubated for 2 hrs by scintillation proximity assay. The note with it: dose 1-10 µM.
Test [15] concerns the target Histone-lysine N-methyltransferase EZH2 (Homo sapiens) (UniProt Q15910). Briefly: Inhibition of EZH2 (unknown origin) using Biotin-tagged H4K20me1 and [3H-SAM] as substrate at 1 to 10 uM incubated for 2 hrs by scintillation proximity assay. The note with it: dose 1-10 µM.
Test [16] deals with Histone-lysine N-methyltransferase PRDM9 (Homo sapiens) (UniProt Q9NQV7). The test can be described thus: Inhibition of PRDM9 (unknown origin) using Biotin-tagged H4K20me1 and [3H-SAM] as substrate at 1 to 10 uM incubated for 2 hrs by scintillation proximity assay. Conditions: dose 1-10 µM.
Test [17] concerns the target Histone-lysine N-methyltransferase SMYD3 (Homo sapiens) (UniProt Q9H7B4). The test can be described thus: Inhibition of SMYD3 (unknown origin) using Biotin-tagged H4K20me1 and [3H-SAM] as substrate at 1 to 10 uM incubated for 2 hrs by scintillation proximity assay. Conditions: dose 1-10 µM.
For test [18], the species on record is Homo sapiens. The test can be described thus: Inhibition of DNMT3B/3L (unknown origin) at 1 to 10 uM incubated for 1 hrs by scintillation proximity assay. Conditions: dose 1-10 µM.
Test [19] addresses Histone-lysine N-methyltransferase KMT5B (Homo sapiens) (UniProt Q4FZB7). Briefly: Binding affinity to recombinant human 6His-(Tev)-G-SUV420H1 (69 to 335 residues) assessed as increase thermal stability by measuring change in melting temperature at 50 uM in the presence of SAM by thermal shift assay.
For test [20] the target is unchanged. Briefly: Binding affinity to recombinant human 6His-(Tev)-G-SUV420H1 (69 to 335 residues) assessed as increase thermal stability by measuring change in melting temperature at 50 uM by thermal shift assay.
The subject of test [21] is U2OS. The test can be described thus: Cytotoxicity against human U2OS cells assessed as cell viability upto 12.5 uM incubated for 48 hrs. It is filed as functional, cell-based.
In test [22] the test system is U2OS. The test can be described thus: Antiproliferative activity against human U2OS cells assessed as cell population doubling at 1 uM incubated for 80 days. It is filed as functional, cell-based. The note with it: time 80.0 day.
The subject of test [23] is MEF. The test can be described thus: Antiproliferative activity against mouse MEF cells assessed as increase in H4K20me1 level at 10 uM incubated for 3 days by immunofluorescence analysis. Conditions: time 3.0 day. It is filed as functional, cell-based.
In test [24] the test system is U2OS. Briefly: Induction of DNA repair in human U2OS cells expressing I-SceI reporter assessed as increase in H4K20me1 level by Western blot analysis. Format: functional, cell-based.
Test [25] concerns U2OS. Briefly: Induction of DNA repair in human U2OS cells expressing I-SceI reporter assessed as decrease in H4K20me3 level by Western blot analysis. It is filed as functional, cell-based.
In test [26] the test system is U2OS. The test can be described thus: Inhibition of colony formation in human U2OS cells at 1 uM incubated for 48 hrs in the presence of etoposide by cell clonogenic assay. Format: functional, cell-based.
The test system of test [27] is U2OS. Briefly: Inhibition of colony formation in human U2OS cells at 1 uM incubated for 48 hrs in the presence of MMC by cell clonogenic assay. It is filed as functional, cell-based.
Test [28] has as its target Cyclin-dependent kinase 1 (Homo sapiens) (UniProt P06493). Briefly: Inhibition of human CDC2 at 10 uM relative to control.
For test [29], the target named is Serine/threonine-protein kinase Chk1 (Homo sapiens) (UniProt O14757). The test can be described thus: Inhibition of human CHK1 at 10 uM relative to control.
In test [30] the target is RAC-alpha serine/threonine-protein kinase (Homo sapiens) (UniProt P31749). Briefly: Inhibition of human Akt1 at 10 uM relative to control.
In test [31] the target is Serine/threonine-protein kinase 26 (Homo sapiens) (UniProt Q9P289). The test can be described thus: Inhibition of human MST4 at 10 uM relative to control.
Test [32] addresses Protein kinase C beta type (Homo sapiens) (UniProt P05771). Briefly: Inhibition of human PKCbeta 2 at 10 uM relative to control.
The target in test [33] is Epidermal growth factor receptor (Homo sapiens) (UniProt P00533). Briefly: Inhibition of human EGFR at 10 uM relative to control.
Test [34] has as its target Aurora kinase A (Homo sapiens) (UniProt O14965). The test can be described thus: Inhibition of human AurA at 10 uM relative to control.
The target in test [35] is Fibroblast growth factor receptor 1 (Homo sapiens) (UniProt P11362). Briefly: Inhibition of human FGFR1 kinase at 10 uM relative to control.
Test [36] deals with Sodium-dependent serotonin transporter (Homo sapiens) (UniProt P31645). Briefly: Inhibition of human SERT expressed in stable HEK cells at 10 uM relative to control. Format: cell-based.

Molecules are shown by their SMILES. Active and inactive are the calls of the source. The rule behind the calls is not given here.

Chain of Histone-lysine N-methyltransferase KMT5B (Homo sapiens) (Q4FZB7 whole entry, looked up, the tested form may be a part): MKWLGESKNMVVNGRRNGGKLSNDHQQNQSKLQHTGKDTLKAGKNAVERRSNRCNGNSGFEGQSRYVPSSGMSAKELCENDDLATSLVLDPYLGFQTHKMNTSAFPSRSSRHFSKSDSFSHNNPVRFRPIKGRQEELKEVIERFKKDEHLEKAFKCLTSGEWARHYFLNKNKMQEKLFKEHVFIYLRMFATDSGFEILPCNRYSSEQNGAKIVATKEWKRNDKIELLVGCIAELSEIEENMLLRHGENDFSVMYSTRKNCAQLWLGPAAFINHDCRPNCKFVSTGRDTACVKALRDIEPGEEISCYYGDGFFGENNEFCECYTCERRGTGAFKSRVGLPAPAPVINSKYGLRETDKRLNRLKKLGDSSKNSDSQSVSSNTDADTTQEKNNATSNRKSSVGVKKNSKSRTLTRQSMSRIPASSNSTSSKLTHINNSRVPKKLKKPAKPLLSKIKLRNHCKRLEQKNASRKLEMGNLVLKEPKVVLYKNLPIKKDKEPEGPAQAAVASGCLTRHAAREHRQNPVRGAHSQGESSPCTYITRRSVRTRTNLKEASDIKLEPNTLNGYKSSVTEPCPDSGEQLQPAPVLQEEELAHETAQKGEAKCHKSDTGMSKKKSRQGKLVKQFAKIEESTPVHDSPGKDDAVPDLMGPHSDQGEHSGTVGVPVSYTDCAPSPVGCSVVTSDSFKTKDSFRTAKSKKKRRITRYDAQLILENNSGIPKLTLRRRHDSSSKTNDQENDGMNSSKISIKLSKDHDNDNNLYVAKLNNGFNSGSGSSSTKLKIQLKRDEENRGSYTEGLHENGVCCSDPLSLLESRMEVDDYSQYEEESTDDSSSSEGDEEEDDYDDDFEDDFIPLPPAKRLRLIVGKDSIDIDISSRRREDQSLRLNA
Chain of Histone-lysine N-methyltransferase SMYD3 (Homo sapiens) (Q9H7B4 whole entry): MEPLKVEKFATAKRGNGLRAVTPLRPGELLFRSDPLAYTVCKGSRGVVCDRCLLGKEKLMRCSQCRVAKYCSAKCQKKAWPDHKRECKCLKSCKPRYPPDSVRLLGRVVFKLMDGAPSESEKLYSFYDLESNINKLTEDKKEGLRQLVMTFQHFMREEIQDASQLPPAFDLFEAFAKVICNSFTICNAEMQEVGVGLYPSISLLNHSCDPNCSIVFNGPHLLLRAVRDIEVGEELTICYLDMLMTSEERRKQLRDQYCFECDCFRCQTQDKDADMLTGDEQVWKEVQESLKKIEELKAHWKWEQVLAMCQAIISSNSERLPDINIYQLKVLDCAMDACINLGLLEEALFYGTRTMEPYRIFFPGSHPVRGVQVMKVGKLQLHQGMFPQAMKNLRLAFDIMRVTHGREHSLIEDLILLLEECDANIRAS
Chain of Sodium-dependent noradrenaline transporter (Homo sapiens) (P23975 whole entry): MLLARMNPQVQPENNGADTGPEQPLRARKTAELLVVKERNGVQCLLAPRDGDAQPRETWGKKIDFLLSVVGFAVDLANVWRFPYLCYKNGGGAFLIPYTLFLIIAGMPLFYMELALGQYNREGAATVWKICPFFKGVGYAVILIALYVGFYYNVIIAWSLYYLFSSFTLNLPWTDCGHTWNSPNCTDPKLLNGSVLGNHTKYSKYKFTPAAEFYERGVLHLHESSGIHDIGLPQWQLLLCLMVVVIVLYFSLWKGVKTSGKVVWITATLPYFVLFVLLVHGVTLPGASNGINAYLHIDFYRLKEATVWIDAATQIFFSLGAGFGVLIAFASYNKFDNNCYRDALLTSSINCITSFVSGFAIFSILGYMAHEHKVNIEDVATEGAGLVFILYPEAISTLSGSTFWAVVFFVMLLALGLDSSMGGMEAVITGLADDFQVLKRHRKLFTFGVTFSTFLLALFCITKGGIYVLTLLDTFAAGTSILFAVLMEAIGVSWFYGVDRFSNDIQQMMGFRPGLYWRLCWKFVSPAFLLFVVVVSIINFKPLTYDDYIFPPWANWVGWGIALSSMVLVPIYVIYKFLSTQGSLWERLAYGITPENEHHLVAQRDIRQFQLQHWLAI
Chain of Serine/threonine-protein kinase Chk1 (Homo sapiens) (O14757 whole entry): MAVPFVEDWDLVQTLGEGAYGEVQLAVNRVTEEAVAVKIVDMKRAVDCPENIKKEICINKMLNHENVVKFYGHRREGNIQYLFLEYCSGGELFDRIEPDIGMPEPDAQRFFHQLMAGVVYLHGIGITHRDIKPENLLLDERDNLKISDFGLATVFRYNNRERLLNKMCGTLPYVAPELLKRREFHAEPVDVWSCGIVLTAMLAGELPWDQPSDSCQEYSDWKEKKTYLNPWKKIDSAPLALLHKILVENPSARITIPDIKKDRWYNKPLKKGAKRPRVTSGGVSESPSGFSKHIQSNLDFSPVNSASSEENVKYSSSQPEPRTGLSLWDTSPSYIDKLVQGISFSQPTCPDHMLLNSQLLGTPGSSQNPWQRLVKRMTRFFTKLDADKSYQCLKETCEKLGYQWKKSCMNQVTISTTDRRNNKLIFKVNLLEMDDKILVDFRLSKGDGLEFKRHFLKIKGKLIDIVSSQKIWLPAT
Chain of Histone-lysine N-methyltransferase PRDM9 (Homo sapiens) (Q9NQV7 whole entry): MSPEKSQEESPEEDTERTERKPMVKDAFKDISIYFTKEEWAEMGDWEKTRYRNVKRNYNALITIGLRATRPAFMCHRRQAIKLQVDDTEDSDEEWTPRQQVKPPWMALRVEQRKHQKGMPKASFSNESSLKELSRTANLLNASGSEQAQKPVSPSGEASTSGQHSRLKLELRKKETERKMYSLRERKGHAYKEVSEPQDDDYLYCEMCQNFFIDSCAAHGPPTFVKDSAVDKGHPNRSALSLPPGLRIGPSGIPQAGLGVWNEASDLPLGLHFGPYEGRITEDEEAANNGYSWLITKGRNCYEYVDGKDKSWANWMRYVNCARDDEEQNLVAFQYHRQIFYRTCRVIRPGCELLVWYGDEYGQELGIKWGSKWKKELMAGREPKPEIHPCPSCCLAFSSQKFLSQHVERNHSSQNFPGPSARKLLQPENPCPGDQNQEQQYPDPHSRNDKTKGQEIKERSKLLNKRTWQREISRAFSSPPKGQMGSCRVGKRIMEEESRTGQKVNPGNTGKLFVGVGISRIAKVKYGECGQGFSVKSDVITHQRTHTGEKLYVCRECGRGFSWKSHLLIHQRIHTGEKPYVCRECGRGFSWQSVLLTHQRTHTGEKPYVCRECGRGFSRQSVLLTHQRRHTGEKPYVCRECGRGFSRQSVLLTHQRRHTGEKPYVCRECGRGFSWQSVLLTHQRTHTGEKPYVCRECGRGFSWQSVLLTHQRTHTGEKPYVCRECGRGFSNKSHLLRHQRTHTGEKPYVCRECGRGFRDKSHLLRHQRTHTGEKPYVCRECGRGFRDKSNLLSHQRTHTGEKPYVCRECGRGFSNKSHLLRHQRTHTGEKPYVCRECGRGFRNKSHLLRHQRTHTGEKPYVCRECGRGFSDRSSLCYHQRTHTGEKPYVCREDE
Chain of Aurora kinase A (Homo sapiens) (O14965 whole entry): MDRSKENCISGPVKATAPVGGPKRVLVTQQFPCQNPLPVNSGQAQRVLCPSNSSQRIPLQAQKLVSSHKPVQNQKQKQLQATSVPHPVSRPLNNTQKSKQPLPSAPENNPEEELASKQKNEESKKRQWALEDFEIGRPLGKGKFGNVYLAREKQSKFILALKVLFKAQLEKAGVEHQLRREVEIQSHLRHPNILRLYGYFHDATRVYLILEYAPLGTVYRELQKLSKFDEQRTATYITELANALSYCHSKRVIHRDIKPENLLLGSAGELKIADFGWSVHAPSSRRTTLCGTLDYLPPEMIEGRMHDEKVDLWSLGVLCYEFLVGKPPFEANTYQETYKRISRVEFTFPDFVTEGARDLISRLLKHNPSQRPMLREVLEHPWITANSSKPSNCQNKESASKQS
Chain of Sodium-dependent serotonin transporter (Homo sapiens) (P31645 whole entry, looked up): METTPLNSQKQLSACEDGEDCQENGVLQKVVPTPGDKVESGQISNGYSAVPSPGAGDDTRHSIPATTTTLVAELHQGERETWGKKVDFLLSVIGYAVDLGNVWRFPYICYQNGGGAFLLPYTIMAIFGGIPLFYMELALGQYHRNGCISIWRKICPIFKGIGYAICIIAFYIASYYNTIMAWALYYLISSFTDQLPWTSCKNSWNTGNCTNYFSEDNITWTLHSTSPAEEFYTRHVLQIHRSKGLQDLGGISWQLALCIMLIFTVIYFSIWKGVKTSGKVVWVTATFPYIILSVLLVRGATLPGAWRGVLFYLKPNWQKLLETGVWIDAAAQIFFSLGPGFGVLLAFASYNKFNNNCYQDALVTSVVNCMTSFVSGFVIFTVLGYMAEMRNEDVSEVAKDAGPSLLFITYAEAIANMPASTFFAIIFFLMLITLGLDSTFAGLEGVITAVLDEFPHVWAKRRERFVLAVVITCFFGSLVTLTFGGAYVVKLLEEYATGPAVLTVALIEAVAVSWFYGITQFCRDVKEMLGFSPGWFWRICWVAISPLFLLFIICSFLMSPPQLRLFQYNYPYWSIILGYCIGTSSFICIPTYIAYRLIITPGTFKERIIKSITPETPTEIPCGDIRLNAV
Chain of Histone-lysine N-methyltransferase SUV39H1 (Homo sapiens) (O43463 whole entry): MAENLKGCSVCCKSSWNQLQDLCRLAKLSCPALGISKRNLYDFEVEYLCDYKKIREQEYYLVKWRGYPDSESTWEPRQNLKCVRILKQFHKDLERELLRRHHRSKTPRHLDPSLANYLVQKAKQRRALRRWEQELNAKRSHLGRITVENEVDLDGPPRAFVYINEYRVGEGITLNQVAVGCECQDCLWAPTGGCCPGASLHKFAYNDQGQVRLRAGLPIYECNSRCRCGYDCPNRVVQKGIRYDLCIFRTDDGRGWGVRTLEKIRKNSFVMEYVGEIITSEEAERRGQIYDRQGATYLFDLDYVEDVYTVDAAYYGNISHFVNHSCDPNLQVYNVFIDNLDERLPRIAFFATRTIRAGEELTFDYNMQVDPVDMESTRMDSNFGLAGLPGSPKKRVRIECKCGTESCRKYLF

Usually inhibition stands for the change of the read-out against control, counted positive when it falls. `O=C(c1nnc(NC2CCCC2)c2cc(Cl)c(Cl)cc12)N1CCC(O)CC1`: the inhibition entry in test [1] is “inactive”. Further, the result in the test on U2OS [2], in the test on U2OS [3], in the test on MEF [4] and with MEF [5] was inactive. The inhibition in the test filed under Homo sapiens [6] was 21%; in [7] it was 1%; in [8] it was 19%; in the test filed under Homo sapiens [9] it was -7%.
In general, ΔTm refers to the shift of the melting midpoint relative to a reference. Take `Clc1cc2c(NC3CCCC3)nnc(-c3ccncc3)c2cc1Cl`: the inhibition result in [10], in test [11], in test [12], in test [13], in test [14] and in [15] was “inactive” throughout. The inhibition result (in test [16]; in [17]; in the test listed under Homo sapiens [18]) was “inactive” in each case. For the same compound, the ΔTm in test [19] was 12.5 °C; in test [20], 6.4 °C. The result in the test on U2OS [21], in the test with U2OS [22], in the test with MEF [23], in the test on U2OS [24] and in the test with U2OS [25] was Active. Besides, the inhibition result with U2OS [26] and with U2OS [27] was “Active” each time. Besides, the inhibition in test [28] was 3%; in test [29] it was 3%; in test [30], 0%; in [31] it was -2%; in test [32] it was -3%; in test [33], -4%. For the same compound, the values for the inhibition in test [34], in test [35] and in test [36] were -6%, -8% and -7%, respectively.
